Measured values as given in patent publication US9663473B2 (Actelion Pharmaceuticals Ltd, priority 2013, dated 2017).
pEC50: −log10 of the molar value. Where a name gives a salt, the structure may show the parent alone.

Each compound was assayed against T1, recombinant human ALX receptor (Homo sapiens, UniProt P25090) (assay: Intracellular calcium measurements (FLIPR), ALX receptor agonistic activity). Conditions: HEK293-hALXR-Gα16 cells, Fluo-4 calcium signal, normalized to WKYMVm 10 nM.
T1 construct: expressed in transfected cells; host or cells: HEK293 (HEK293-hALXR-Gα16)
T1 sequence (P25090 1-351): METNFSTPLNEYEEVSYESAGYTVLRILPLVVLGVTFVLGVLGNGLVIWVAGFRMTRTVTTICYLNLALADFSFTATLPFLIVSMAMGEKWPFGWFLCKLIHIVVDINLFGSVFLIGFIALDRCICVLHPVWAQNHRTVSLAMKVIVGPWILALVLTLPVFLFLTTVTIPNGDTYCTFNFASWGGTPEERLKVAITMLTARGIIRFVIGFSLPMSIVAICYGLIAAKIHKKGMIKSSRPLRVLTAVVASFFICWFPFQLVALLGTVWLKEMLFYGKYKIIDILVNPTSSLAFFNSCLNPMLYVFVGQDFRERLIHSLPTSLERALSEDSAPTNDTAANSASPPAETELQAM
Assay type: cell-based
How it was run: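 Agonist-induced calcium flux was read by FLIPR (488/540 nm) as baseline-subtracted peak emission, expressed relative to WKYMVm at 10 nM final. Cells used: HEK293-hALXR-Gα16, dye-loaded 60 min at 37° C. with 1 μM Fluo-4 AM before compound dose-response addition.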

Row | Compound | pEC50
1 | COc1ccc(CC(NC(=O)NCCCN(C)C)c2nc3ccccc3[nH]2)cc1 (stereo not shown) [Example 388, 1-(1-(1H-Benzo[d]imidazol-2-yl)-2-(4-methoxyphenyl)ethyl)-3-(3-(dimethylamino)propyl)urea] | 5.97
2 | CCn1nccc1NC(=O)NC(Cc1ccc(OC)cc1)c1nc2ccccc2[nH]1 (stereo not shown) [Example 417, 1-(1-(1H-benzo[d]imidazol-2-yl)-2-(4-methoxyphenyl)ethyl)-3-(1-ethyl-1H-pyrazol-5-yl)urea] | 7.21
3 | COc1cc(F)c(CC(NC(=O)N[C@H]2CC[C@](C)(O)CC2)c2nc3ccccc3[nH]2)c(F)c1 (mixture of isomers) [Example 236, 1-(1-(1H-Benzo[d]imidazol-2-yl)-2-(2,6-difluoro-4-methoxyphenyl)ethyl)-3-(trans-4-hydroxy-4-methylcyclohexyl)urea] | 8.46
4 | COc1ccc(CC(NC(=O)Nc2ccnn2C)c2nc3ccccc3[nH]2)cc1 (stereo not shown) [Example 418, 1-(1-(1H-benzo[d]imidazol-2-yl)-2-(4-methoxyphenyl)ethyl)-3-(1-methyl-1H-pyrazol-5-yl)urea] | 6.68
5 | COc1cc(F)c(CC(NC(=O)NC23CCC(O)(CC2)CC3)c2nc3ccccc3[nH]2)cc1F (single isomer, unassigned; ent-1) [Example 357, 1-(1-(1H-Benzo[d]imidazol-2-yl)-2-(2,5-difluoro-4-methoxyphenyl)ethyl)-3-(4-hydroxybicyclo[2.2.2]octan-1-yl)urea (ent-1)] | 9.00
6 | O=C(NC(Cc1ccc(Br)cc1F)c1nc2ccccc2[nH]1)NC12CCC(O)(CC1)CC2 (stereo not shown) [Example 254, 1-(1-(1H-Benzo[d]imidazol-2-yl)-2-(4-bromo-2-fluorophenyl)ethyl)-3-(4-hydroxybicyclo[2.2.2]octan-1-yl)urea] | 7.68
7 | COc1ccc(CC(NC(=O)Nc2cc(-c3ccc(Cl)cc3)nn2C)c2nc3ccccc3[nH]2)cc1 (stereo not shown) [Example 403, 1-(1-(1H-Benzo[d]imidazol-2-yl)-2-(4-methoxyphenyl)ethyl)-3-(3-(4-chlorophenyl)-1-methyl-1H-pyrazol-5-yl)urea] | 6.93
8 | COc1ccc(C[C@@H](NC(=O)N[C@@H]2CCc3ccccc32)c2nc3ccccc3[nH]2)cc1 [Example 334, 1-((R)-1-(1H-Benzo[d]imidazol-2-yl)-2-(4-methoxyphenyl)ethyl)-3-((R)-2,3-dihydro-1H-inden-1-yl)urea] | 6.95
9 | O=C(N[C@H](Cc1ccc(C(F)(F)F)cc1)c1nc2cc(F)ccc2[nH]1)NC12CCC(O)(CC1)CC2 [Example 267, (R)-1-(1-(5-Fluoro-1H-benzo[d]imidazol-2-yl)-2-(4-(trifluoromethyl)phenyl)ethyl)-3-(4-hydroxybicyclo[2.2.2]octan-1-yl)urea] | 7.85
10 | COc1ccc(C[C@@H](NC(=O)NCCN2CCc3ccccc3C2)c2nc3ccccc3[nH]2)cc1 [Example 297, (R)-1-(1-(1H-Benzo[d]imidazol-2-yl)-2-(4-methoxyphenyl)ethyl)-3-(2-(3,4-dihydroisoquinolin-2(1H)-yl)ethyl)urea] | 6.66
11 | COc1ccc(C[C@@H](NC(=O)N[C@@H]2CC[C@H](O)C2)c2nc3ccccc3[nH]2)cc1 (relative stereo) [Example 171, 1-((R)-1-(1H-Benzo[d]imidazol-2-yl)-2-(4-methoxyphenyl)ethyl)-3-((1R*,3S*)-3-hydroxycyclopentyl)urea] | 7.42
12 | COc1ccc(C[C@@H](NC(=O)NCc2ccccc2C#N)c2nc3ccccc3[nH]2)cc1 [Example 211, (R)-1-(1-(1H-Benzo[d]imidazol-2-yl)-2-(4-methoxyphenyl)ethyl)-3-(2-cyanobenzyl)urea] | 6.78
13 | COc1ccc(C[C@@H](NC(=O)NCCc2ccc(C)cc2)c2nc3ccccc3[nH]2)cc1 [Example 66, (R)-1-(1-(1H-Benzo[d]imidazol-2-yl)-2-(4-methoxyphenyl)ethyl)-3-(4-methylphenethyl)urea hydrochloride] | 6.36
14 | COc1ccc(C[C@@H](NC(=O)NCCc2ccc(Cl)cc2)c2nc3ccccc3[nH]2)cc1 [Example 302, (R)-1-(1-(1H-Benzo[d]imidazol-2-yl)-2-(4-methoxyphenyl)ethyl)-3-(4-chlorophenethyl)urea] | 6.89
15 | COc1ccc(C[C@@H](NC(=O)N[C@H](C)c2cccc(OC)c2)c2nc3ccccc3[nH]2)cc1 [Example 332, 1-((R)-1-(1H-Benzo[d]imidazol-2-yl)-2-(4-methoxyphenyl)ethyl)-3-((R)-1-(3-methoxyphenyl)ethyl)urea] | 7.00
16 | COc1ccc(C[C@@H](NC(=O)N[C@@H]2CCN(C(=O)OC(C)(C)C)C2)c2nc3ccccc3[nH]2)cc1 [Example 118, (R)-tert-Butyl 3-(3-((R)-1-(1H-benzo[d]imidazol-2-yl)-2-(4-methoxyphenyl)ethyl)ureido)pyrrolidine-1-carboxylate] | 7.60

Row | Compound | pEC50
17 | COC(=O)c1ccc(C2(NC(=O)N[C@H](Cc3ccc(OC)cc3)c3nc4ccccc4[nH]3)CC2)cc1 [Example 342, (R)-Methyl 4-(1-(3-(1-(1H-benzo[d]imidazol-2-yl)-2-(4-methoxyphenyl)ethyl)ureido)cyclopropyl)benzoate] | 6.56
18 | COc1ccc(C[C@@H](NC(=O)NCCc2ccc(F)c(F)c2)c2nc3ccccc3[nH]2)cc1 [Example 300, (R)-1-(1-(1H-Benzo[d]imidazol-2-yl)-2-(4-methoxyphenyl)ethyl)-3-(3,4-difluorophenethyl)urea] | 7.09
19 | COc1ccc(CC(NC(=O)NCc2ccccc2Cl)c2nc3ccccc3[nH]2)cc1 (stereo not shown) [Example 45, 1-(1-(1H-Benzo[d]imidazol-2-yl)-2-(4-methoxyphenyl)ethyl)-3-(2-chlorobenzyl)urea] | 6.12
20 | COc1ccc(C[C@@H](NC(=O)N[C@H](C)c2ccc(Br)cc2)c2nc3ccccc3[nH]2)cc1 [Example 322, 1-((R)-1-(1H-Benzo[d]imidazol-2-yl)-2-(4-methoxyphenyl)ethyl)-3-((R)-1-(4-bromophenyl)ethyl)urea] | 6.23
21 | COc1ccc(C[C@@H](NC(=O)NCC2CCCCC2)c2nc3ccccc3[nH]2)cc1 [Example 98, (R)-1-(1-(1H-Benzo[d]imidazol-2-yl)-2-(4-methoxyphenyl)ethyl)-3-(cyclohexylmethyl)urea] | 6.36
22 | COc1ccc(C[C@@H](NC(=O)N[C@H]2CC[C@@](C)(O)CC2)c2nc3ccccc3[nH]2)cc1 [Example 189, 1-((R)-1-(1H-Benzo[d]imidazol-2-yl)-2-(4-methoxyphenyl)ethyl)-3-(cis-4-hydroxy-4-methylcyclohexyl)urea] | 7.72
23 | COc1cc(F)c(CC(NC(=O)NC23CCC(O)(CC2)CC3)c2nc3ccc(F)cc3[nH]2)c(F)c1 (single isomer, unassigned; ent-1) [Example 367, 1-(2-(2,6-Difluoro-4-methoxyphenyl)-1-(6-fluoro-1H-benzo[d]imidazol-2-yl)ethyl)-3-(4-hydroxybicyclo[2.2.2]octan-1-yl)urea (ent-1)] | 10.00
24 | COc1ccc(C(C)(C)C(NC(=O)N[C@H]2CC[C@H](O)CC2)c2nc3ccccc3[nH]2)cc1 (relative stereo) [Example 3, 1-(1-(1H-Benzo[d]imidazol-2-yl)-2-(4-methoxyphenyl)-2-methylpropyl)-3-(trans-4-hydroxycyclohexyl)urea] | 6.92
25 | COc1ccc(C[C@@H](NC(=O)NCCc2ccc(F)cc2)c2nc3ccccc3[nH]2)cc1 [Example 55, (R)-1-(1-(1H-Benzo[d]imidazol-2-yl)-2-(4-methoxyphenyl)ethyl)-3-(4-fluorophenethyl)urea hydrochloride] | 6.86
26 | COc1ccc(C[C@@H](NC(=O)NCC2(c3ccccc3)CCCCC2)c2nc3ccccc3[nH]2)cc1 [Example 278, (R)-1-(1-(1H-Benzo[d]imidazol-2-yl)-2-(4-methoxyphenyl)ethyl)-3-((1-phenylcyclohexyl)methyl)urea] | 7.29
27 | COc1ccc(C[C@@H](NC(=O)NCc2cccnc2OCC(F)(F)F)c2nc3ccccc3[nH]2)cc1 [Example 64, (R)-1-(1-(1H-Benzo[d]imidazol-2-yl)-2-(4-methoxyphenyl)ethyl)-3-((2-(2,2,2-trifluoroethoxy)pyridin-3-yl)methyl)urea hydrochloride] | 7.29
28 | COc1ccc(C[C@@H](NC(=O)Nc2cccc(OC)c2)c2nc3ccccc3[nH]2)cc1 [Example 177, (R)-1-(1-(1H-Benzo[d]imidazol-2-yl)-2-(4-methoxyphenyl)ethyl)-3-(3-methoxyphenyl)urea] | 6.61
29 | COc1ccc(C[C@@H](NC(=O)NC2CCc3ccccc3C2)c2nc3ccccc3[nH]2)cc1 (stereo partly drawn) [Example 15, 1-((R)-1-(1H-Benzo[d]imidazol-2-yl)-2-(4-methoxyphenyl)ethyl)-3-(1,2,3,4-tetrahydronaphthalen-2-yl)urea hydrochloride] | 7.23
30 | COc1ccc(C[C@@H](NC(=O)N[C@@H]2CCCC[C@H]2C(N)=O)c2nc3ccccc3[nH]2)cc1 (relative stereo) [Example 163, (1R*,2R*)-2-(3-((R)-1-(1H-Benzo[d]imidazol-2-yl)-2-(4-methoxyphenyl)ethyl)ureido)cyclohexanecarboxamide] | 6.92
31 | COc1ccc(C[C@@H](NC(=O)NCc2nc(C(C)(F)F)co2)c2nc3ccccc3[nH]2)cc1 [Example 423, (R)-1-(1-(1H-benzo[d]imidazol-2-yl)-2-(4-methoxyphenyl)ethyl)-3-((4-(1,1-difluoroethyl)oxazol-2-yl)methyl)urea] | 6.25
